From patent US7592350B2, “Polycyclic compounds as potent alpha2-adrenoceptor antagonists” (Orion Corporation, priority 2002, dated 2009)

Tests used:
alpha2B-adrenoceptor [1] = target: T1, alpha2B-adrenoceptor (Homo sapiens, UniProt P18089); assay: Radioligand binding to alpha2-adrenoceptors (alpha2B); conditions: calculated Ki from radioligand binding assays; read-out: Binding affinity (Ki) alpha2B
T1 sequence (P18089 1-450): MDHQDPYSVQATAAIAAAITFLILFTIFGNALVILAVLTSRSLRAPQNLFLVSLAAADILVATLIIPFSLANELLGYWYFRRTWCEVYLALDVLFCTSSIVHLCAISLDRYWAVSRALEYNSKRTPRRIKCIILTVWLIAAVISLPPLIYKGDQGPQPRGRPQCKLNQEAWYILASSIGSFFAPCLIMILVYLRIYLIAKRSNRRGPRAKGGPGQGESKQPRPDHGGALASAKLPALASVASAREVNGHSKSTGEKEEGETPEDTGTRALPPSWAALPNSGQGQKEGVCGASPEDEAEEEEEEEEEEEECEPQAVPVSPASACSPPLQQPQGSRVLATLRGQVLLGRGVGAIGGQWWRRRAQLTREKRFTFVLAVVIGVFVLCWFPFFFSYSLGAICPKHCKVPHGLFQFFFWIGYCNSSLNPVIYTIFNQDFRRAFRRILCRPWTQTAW
From the text: Examples of the alpha2-adrenoceptor binding affinities of the compounds including in the present invention are shown in the Table 1. Many of these compouinds are high-affinity ligands for all the alpha2-receptors, but some of them display selectivity for the alpha2C-subtype.

alpha2A-adrenoceptor [2] = target: T2, alpha2A-adrenoceptor (Homo sapiens, UniProt P08913); assay: Inhibition of epinephrine-stimulated 35S-GTPγS binding, CHO cell membranes (alpha2A); format: biochemical; set-up: expressed in transfected cells; host or cells: CHO cells (membranes); conditions: mean, read-out: Antagonist potency (KB) alpha2A
T2 sequence (P08913 1-465): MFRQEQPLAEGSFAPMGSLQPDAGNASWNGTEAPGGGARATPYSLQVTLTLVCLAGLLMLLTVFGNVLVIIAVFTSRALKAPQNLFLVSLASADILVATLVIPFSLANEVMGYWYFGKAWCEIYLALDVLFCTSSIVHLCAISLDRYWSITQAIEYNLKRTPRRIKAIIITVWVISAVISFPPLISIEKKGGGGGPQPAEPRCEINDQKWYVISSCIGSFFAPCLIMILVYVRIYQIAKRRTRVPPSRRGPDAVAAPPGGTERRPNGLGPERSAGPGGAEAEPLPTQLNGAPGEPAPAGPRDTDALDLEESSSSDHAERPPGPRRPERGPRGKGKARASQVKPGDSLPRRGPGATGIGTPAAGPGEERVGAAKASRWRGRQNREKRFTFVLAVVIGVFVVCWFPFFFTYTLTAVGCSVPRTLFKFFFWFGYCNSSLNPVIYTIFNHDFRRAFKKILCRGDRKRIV
Method: (§1) The functional activities of two compounds (K and L) displaying alpha2C-selectivity in binding experiments were determined as the abilities of the compounds to inhibit the epinephrine-stimulated binding of ^35S-GTPγS to G proteins (Jasper, J. R. et al., Biochem. Pharmacol. 55(7) (1998) 103544) in membranes of CHO cells stably transfected with the human alpha2-adrenoceptor subtypes.

alpha2B-adrenoceptor [3] = target: T1, alpha2B-adrenoceptor; assay: Inhibition of epinephrine-stimulated 35S-GTPγS binding, CHO cell membranes (alpha2B); format: biochemical; set-up: expressed in transfected cells; host or cells: CHO cells (membranes); conditions: mean, read-out: Antagonist potency (KB) alpha2B
Method: as §1

mice = assay: Antagonism of alpha2-agonist (dexmedetomidine)-induced sedation; format: in vivo; conditions: dexmedetomidine 50 nmol/kg s.c., antagonist pre-treatment
Method: (veh=vehicle). (***p<0.001, compared to Dex+vehicle)
One of the prominent effects of non-selective alpha2-agonists in rodents is their ability to cause profound sedation. This effect, measured as locomotor inhibition by the alpha2-agonist dexmedetomidine was not modified in mice with genetically altered alpha2C-expression (Scheinin, M. et al., Life Sci 68(19-20) (2001) 2277-85). […] This assumption was tested in experiment, where dexmedetomidine was administered to mice pre-treated with the alpha2C-antagonists compound K or compound L, or the subtype non-selective antagonist atipamezole (Haapalinna, A. et al., Naunyn-Schmiedeberg's Arch. Pharmacol. 356 (1997) 570-582).

alpha2C-adrenoceptor [4] = target: T3, alpha2C-adrenoceptor (Homo sapiens, UniProt P18825); assay: Radioligand binding to alpha2-adrenoceptors (alpha2C); conditions: calculated Ki from radioligand binding assays; read-out: Binding affinity (Ki) alpha2C
T3 sequence (P18825 1-462): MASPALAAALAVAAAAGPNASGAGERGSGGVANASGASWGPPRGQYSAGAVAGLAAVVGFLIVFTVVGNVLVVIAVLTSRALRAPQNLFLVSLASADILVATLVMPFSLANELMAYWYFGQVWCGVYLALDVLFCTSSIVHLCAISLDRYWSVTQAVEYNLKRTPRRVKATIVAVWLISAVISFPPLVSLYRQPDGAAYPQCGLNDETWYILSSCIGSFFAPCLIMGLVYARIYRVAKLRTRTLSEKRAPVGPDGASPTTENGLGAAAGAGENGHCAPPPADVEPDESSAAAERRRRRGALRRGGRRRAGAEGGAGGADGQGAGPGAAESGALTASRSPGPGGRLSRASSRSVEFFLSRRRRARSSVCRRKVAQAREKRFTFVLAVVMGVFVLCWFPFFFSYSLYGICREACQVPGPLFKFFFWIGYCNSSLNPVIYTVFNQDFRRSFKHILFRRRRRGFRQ

alpha2C-adrenoceptor [5] = target: T3, alpha2C-adrenoceptor; assay: Inhibition of epinephrine-stimulated 35S-GTPγS binding, CHO cell membranes (alpha2C); format: biochemical; set-up: expressed in transfected cells; host or cells: CHO cells (membranes); conditions: mean, read-out: Antagonist potency (KB) alpha2C
Method: as §1

rats = assay: Forced swimming test; format: in vivo; conditions: 3 micromol/kg, compared to vehicle
Method: Forced swimming test (FST, i.e. Porsolt's test) is generally used in the pharmacological screening of new-antidepressants. In this test, antidepressants increase the animals' activity compared to non-treated controls. […] Therefore, it was tested, whether a selective alfa2C-antagonist would have antidepressant-like activity (e.g. activity-increasing property) in the FST. […] Also the positive control substances desipramine and fluoxetine (clinically effective antidepressant agents) were active.

alpha2A-adrenoceptor [6] = target: T2, alpha2A-adrenoceptor; assay: Radioligand binding to alpha2-adrenoceptors (alpha2A); conditions: calculated Ki from radioligand binding assays; read-out: Binding affinity (Ki) alpha2A

CCC1(O)CCCN2CCc3c([nH]c4ccccc34)C21 (stereo not drawn) [Compound K, 1α-Ethyl-1,2,3,4,6,7,12,12bβ-octahydroindolo[2,3-]quinolizin-1-ol]
Ki (alpha2B-adrenoceptor [1]): 245 nM | Kb (alpha2A-adrenoceptor [2]): 295 nM | Kb (alpha2B-adrenoceptor [3]): 351 nM | Antagonism of dexmedetomidine-induced sedation (locomotor inhibition) (mice): did not have clear effects | Ki (alpha2C-adrenoceptor [4]): 31 nM | Kb (alpha2C-adrenoceptor [5]): 23 nM | Activity in the forced swimming test (rats): increased activity | Ki (alpha2A-adrenoceptor [6]): 359 nM
